Data set [1] in a line: Selectivity ratio of human ICE to caspase 3.
The next data set addresses T1, Caspase-1 (Homo sapiens, UniProt P29466).
T1 sequence (P29466 whole entry): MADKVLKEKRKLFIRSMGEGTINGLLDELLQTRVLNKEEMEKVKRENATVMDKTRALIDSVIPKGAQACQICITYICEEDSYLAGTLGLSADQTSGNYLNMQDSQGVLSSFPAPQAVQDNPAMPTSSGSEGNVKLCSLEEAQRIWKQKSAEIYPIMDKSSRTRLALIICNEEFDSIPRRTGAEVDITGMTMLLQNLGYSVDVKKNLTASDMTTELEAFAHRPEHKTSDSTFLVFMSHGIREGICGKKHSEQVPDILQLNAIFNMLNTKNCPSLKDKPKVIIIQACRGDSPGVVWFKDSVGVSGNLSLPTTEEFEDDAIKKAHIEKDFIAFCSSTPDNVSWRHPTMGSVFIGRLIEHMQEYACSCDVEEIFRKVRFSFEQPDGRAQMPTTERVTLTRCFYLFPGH
As to the kind of experiment: Inhibition of human ICE.

The nature of data set [2]: Selectivity ratio of human ICE to caspase 8.
The nature of data set [3]: Selectivity ratio of human ICE to caspase 4.
Data set [4] is described as follows: Selectivity ratio of human ICE to caspase 6.
The species entered for a further data set is Homo sapiens. Kind of data set: Half life in human plasma.

Structures are written as SMILES.

As to `CC(C)[C@H](CC(=O)N1CCCC(Oc2ccccc2)C1)C(=O)N[C@H](C=O)CC(=O)O` (stereo partly specified), the Selectivity ratio in data set [1], in data set [2], in data set [3] and in data set [4] was over 200 in each case. On Caspase-1, the midpoint of inhibition, the IC50, lay at 170 nM. At Caspase-1, this molecule gave a Ki of 21.5 nM.

Consider `CCC(C)O[C@@H]1OC(=O)C[C@@H]1NC(=O)[C@@H](CC(=O)NCCc1cccc2ncccc12)C(C)C` (stereo partly specified), for which the Selectivity ratio in data set [1], in data set [2], in data set [3] and in data set [4] was over 200 each time. In the data set filed under Homo sapiens, this molecule gave a half-life of 3.9 h.

In the case of `CC(C)[C@H](CC(=O)NCCNc1cccc(Cl)c1)C(=O)N[C@H](C=O)CC(=O)O`, the Selectivity ratio in data set [1], in data set [2], in data set [3] and in data set [4] was over 200 each time. In addition, on Caspase-1, the IC50 was determined as 11.2 nM. Further, the affinity on Caspase-1 corresponds to a Ki of 0.95 nM.

For `Cc1cc2nc(C)n(CCNC(=O)C[C@H](C(=O)N[C@H](C=O)CC(=O)O)C(C)C)c2cc1C`, the Selectivity ratio in data set [1], in data set [2], in data set [3] and in data set [4] was over 200 each time. At Caspase-1, this molecule had a concentration for half-maximal inhibition (IC50) of 9.18 nM. For the same molecule, the affinity at Caspase-1 corresponds to a Ki of 1.26 nM.

As to `CC(C)[C@H](CC(=O)NCCc1ccnc2ccccc12)C(=O)N[C@H](C=O)CC(=O)O`, the Selectivity ratio in data set [1], in data set [2], in data set [3] and in data set [4] was over 200 each time. Moreover, 4.77 nM corresponded to half-maximal inhibition at Caspase-1 (IC50). Also, the inhibition constant Ki on Caspase-1 amounted to 1.31 nM.

On to `Cc1ccc2c(c1)ncn2CCNC(=O)C[C@H](C(=O)N[C@H](C=O)CC(=O)O)C(C)C`, for which the Selectivity ratio in data set [1], in data set [2], in data set [3] and in data set [4] was over 200 each time. The molecule also returned a 50% inhibitory concentration (IC50) against Caspase-1 of 15.3 nM. This molecule also showed a Ki at Caspase-1 of 4.85 nM.

On to `CC(C)[C@H](CC(=O)NCCn1ccc2ccccc21)C(=O)N[C@H](C=O)CC(=O)O`, for which the Selectivity ratio in data set [1], in data set [2], in data set [3] and in data set [4] was over 200 in each case. The molecule also had an IC50 against Caspase-1 of 45.3 nM. Further, the affinity at Caspase-1, expressed as Ki, was 4.03 nM.

For `CC(C)[C@H](CC(=O)NCCc1cccc2ccccc12)C(=O)N[C@H](C=O)CC(=O)O`, the Selectivity ratio in data set [1], in data set [2], in data set [3] and in data set [4] was over 200 each time. Besides, the IC50 on Caspase-1 was determined as 5.7 nM. For the same molecule, the affinity on Caspase-1, expressed as Ki, was 0.58 nM.

In the case of `CC(C)[C@H](CC(=O)NCCC(=O)c1ccccc1)C(=O)N[C@H](C=O)CC(=O)O`, the Selectivity ratio in data set [1], in data set [2], in data set [3] and in data set [4] was over 200 throughout. The molecule further registered an IC50 at Caspase-1 of 398 nM. Moreover, the affinity at Caspase-1 corresponds to a Ki of 118 nM.

Take `CC(C)[C@H](CC(=O)NCCc1c[nH]c2ccc(F)cc12)C(=O)N[C@H](C=O)CC(=O)O`: the Selectivity ratio in data set [1], in data set [2], in data set [3] and in data set [4] was over 200 each time. Further, the IC50 against Caspase-1 came out at 37 nM. Further, the inhibitory constant (Ki) on Caspase-1 stood at 7.9 nM.

Regarding `CC(C)[C@H](CC(=O)NCCc1cccc2nc(OCCN(C)C)ccc12)C(=O)N[C@H](C=O)CC(=O)O`, the Selectivity ratio in data set [1], in data set [2], in data set [3] and in data set [4] was over 200 each time. The molecule further showed a half-inhibitory concentration (IC50) against Caspase-1 of 102 nM. The molecule further returned an inhibition constant Ki on Caspase-1 of 16.7 nM.

As to `CC(C)[C@H](CC(=O)NCCOc1ccccc1)C(=O)N[C@H](C=O)CC(=O)O`, the Selectivity ratio in data set [1], in data set [2], in data set [3] and in data set [4] was over 200 each time. The midpoint of inhibition on Caspase-1, the IC50, lay at 539 nM. Further, the Ki on Caspase-1 came out at 16.9 nM.

As to `CC(C)[C@H](CC(=O)NCCn1cnc2ccccc21)C(=O)N[C@H](C=O)CC(=O)O`, the Selectivity ratio in data set [1], in data set [2], in data set [3] and in data set [4] was over 200 in each case. For the same molecule, the midpoint of inhibition on Caspase-1, the IC50, lay at 33.7 nM. At Caspase-1, this molecule registered a Ki of 20 nM.

Turning to `Cc1c(CCNC(=O)C[C@H](C(=O)N[C@H](C=O)CC(=O)O)C(C)C)c2ccccc2n1C`, the Selectivity ratio in data set [1], in data set [2], in data set [3] and in data set [4] was over 200 each time. At Caspase-1, this molecule displayed an IC50 of 42.5 nM. On Caspase-1, this molecule had a Ki of 0.9 nM.

Take `CC(C)[C@H](CC(=O)N1CCN(c2ccccc2)CC1)C(=O)N[C@H](C=O)CC(=O)O`: the Selectivity ratio in data set [1], in data set [2], in data set [3] and in data set [4] was over 200 in each case. This molecule showed a 50% inhibitory concentration (IC50) on Caspase-1 of 7810 nM. On Caspase-1, this molecule showed an inhibition constant Ki of 1020 nM.

On to `CCC(C)O[C@H]1OC(=O)C[C@@H]1NC(=O)[C@@H](CC(=O)NCCc1cccc2ncccc12)C(C)C` (stereo partly specified), for which the Selectivity ratio in data set [1], in data set [2], in data set [3] and in data set [4] was over 200 each time. The molecule further gave a half-life in the data set filed under Homo sapiens of 7.7 h.

With `CC(C)[C@H](CC(=O)NCCn1c(-c2cccnc2)nc2ccccc21)C(=O)N[C@H](C=O)CC(=O)O`, the Selectivity ratio in data set [1], in data set [2], in data set [3] and in data set [4] was over 200 in each case. This molecule returned an IC50 at Caspase-1 of 26.5 nM. The molecule also returned an inhibitory constant (Ki) on Caspase-1 of 3.85 nM.

In the case of `CCO[C@H]1OC(=O)C[C@@H]1NC(=O)[C@@H](CC(=O)NCCc1cccc2ncccc12)C(C)C`, the Selectivity ratio in data set [1], in data set [2], in data set [3] and in data set [4] was over 200 in each case. Moreover, the half-life in the data set filed under Homo sapiens was 4.3 h.

`CC(C)[C@H](CC(=O)N(CCOc1ccccc1)C(C)C)C(=O)N[C@H](C=O)CC(=O)O`: the Selectivity ratio in data set [1], in data set [2], in data set [3] and in data set [4] was over 200 throughout. The molecule further returned an IC50 at Caspase-1 of 584 nM. The molecule further returned an inhibitory constant (Ki) at Caspase-1 of 100 nM.

Consider `COc1ccc(CCCNC(=O)C[C@H](C(=O)N[C@H](C=O)CC(=O)O)C(C)C)cc1`, for which the Selectivity ratio in data set [1], in data set [2], in data set [3] and in data set [4] was over 200 in each case. Further, at Caspase-1, inhibition was half-maximal at 410 nM (IC50). Besides, the affinity at Caspase-1 corresponds to a Ki of 70.9 nM.

With `Cc1cc2ncn(CCNC(=O)C[C@H](C(=O)N[C@H](C=O)CC(=O)O)C(C)C)c2cc1C`, the Selectivity ratio in data set [1], in data set [2], in data set [3] and in data set [4] was over 200 each time. For the same molecule, the IC50 against Caspase-1 was 14.5 nM. The molecule further showed a Ki at Caspase-1 of 2.81 nM.

With `CC(C)[C@H](CC(=O)NCCc1cncc2ccccc12)C(=O)N[C@H](C=O)CC(=O)O`, the Selectivity ratio in data set [1], in data set [2], in data set [3] and in data set [4] was over 200 each time. Besides, half-maximal inhibition on Caspase-1 (IC50) was put at 12 nM. Moreover, at Caspase-1, the inhibitory constant (Ki) came to 4.3 nM.

On to `CC(C)[C@H](CC(=O)NCCc1cccc2ncccc12)C(=O)N[C@H]1CC(=O)O[C@H]1OC1CCCC1`, for which the Selectivity ratio in data set [1], in data set [2], in data set [3] and in data set [4] was over 200 throughout. This molecule also had a half-life in the data set filed under Homo sapiens of 15.7 h.

With `CC(C)[C@H](CC(=O)NCCc1c[nH]c2ccccc12)C(=O)N[C@H](C=O)CC(=O)O`, the Selectivity ratio in data set [1], in data set [2], in data set [3] and in data set [4] was over 200 throughout. Moreover, the IC50 at Caspase-1 came to 23.1 nM. For the same molecule, the Ki at Caspase-1 worked out at 5.02 nM.

Take `CC(C)[C@H](CC(=O)NCCCc1ccccc1)C(=O)N[C@H](C=O)CC(=O)O`: the Selectivity ratio in data set [1], in data set [2], in data set [3] and in data set [4] was over 200 in each case.

With `CC(C)[C@H](CC(=O)NCCc1cc(N(C)C)nc2ccccc12)C(=O)N[C@H](C=O)CC(=O)O`, the Selectivity ratio in data set [1], in data set [2], in data set [3] and in data set [4] was over 200 in each case. On Caspase-1, this molecule came in with an IC50 of 3.61 nM. At Caspase-1, this molecule returned an inhibitory constant (Ki) of 3 nM.

Take `CC(C)[C@H](CC(=O)N(CCOc1ccccc1)CCC(=O)O)C(=O)N[C@H](C=O)CC(=O)O`: the Selectivity ratio in data set [1], in data set [2], in data set [3] and in data set [4] was over 200 in each case. Besides, the half-maximal inhibitory concentration (IC50) at Caspase-1 was 114 nM. For the same molecule, the Ki at Caspase-1 came to 9.24 nM.

The values above are taken from ChEMBL document CHEMBL1221254, “Succinic acid amides as P2-P3 replacements for inhibitors of interleukin-1beta converting enzyme (ICE or caspase 1)” (Bioorg Med Chem Lett, 2010).
